1 molecule from publication PMC5198511 (Molecular Pharmacology, 2017) can be followed below.

Data set [1] can be described thus: Immobilized artificial membrane chromatography. In kind it is physicochemical. Conditions: IAM chromatography, pH 7.4.
Another data set in a line: LogD7.4 measurement. In kind it is physicochemical. The settings on record: 1-octanol/phosphate buffer, pH 7.4.

SMILES strings stand for the structures.

Turning to `CCNC(=O)[C@H]1O[C@@H](n2cnc3c(N)nc(NCCc4ccc(CCC(=O)O)cc4)nc32)[C@H](O)[C@@H]1O` [Compound 3ac], in data set [1], the “log KIAM” value is −0.09. The molecule further yielded a log distribution coefficient (logD) in “LogD7.4 measurement” below -0.8.
